Measurements from article PMC11544072 (Heliyon, 2024).

Each compound was assayed against CYP154C7 (assay: UV/Vis spectral titration, type I spin shift).
Assay type: binding, Streptomyces sp. PAMC26508

Row | Structure (SMILES) | Kd
1 | C[C@]12CCC(=O)C=C1CC[C@@H]1[C@@H]2CC[C@]2(C)C(=O)CC[C@@H]12 [androstenedione] | 201 ± 43 nM
2 | C[C@]12CCC(=O)C=C1CC[C@@H]1[C@@H]2C(=O)C[C@@]2(C)[C@H]1CC[C@]2(O)C(=O)CO [cortisone] | 2000 ± 340 nM
3 | C[C@]12CC[C@H]3[C@@H](CCC4=CC(=O)CC[C@@]43C)[C@@H]1CC[C@@H]2O [testosterone] | 304 ± 70 nM
